Like-named read-outs stand apart in the source and are kept apart here. Where only a bound is given, the exact number is not on record here.

One data set has as its target T1, αvβ3 (Homo sapiens, UniProt P05106+P06756).
T1 construct: endogenous in cells; host or cells: SK-Mel-2 melanoma cells
Briefly: Sk-Mel-2 cell adhesion to immobilised fibronectin (cell-binding assay, MTT readout). The conditions noted are these: Sk-Mel-2 adhesion to Fn, mean ± SD. Format: cell-based. The method, then:
First, 96-well plates (Corning, VWR) were coated overnight at 4 °C with 0.5 μg/well fibronectin (Sigma). SK-Mel-2 cells were trypsinised, washed and resuspended in RPMI medium only at 10^5 cells/mL. Cells (100 µL/well) were treated with compound (DMSO final concentration 0.1%) at the indicated concentration for 4 hrs on a rotary shaker. Plates were washed (3 × PBS) and blocked with PBS/5% BSA for 2 hrs at 37 °C prior to adding the cells. Cells were incubated on the plates at 37 °C in a humidified chamber with 5% CO2 for 1 hr. The plates were washed 3× with PBS and a 200 µL/well RPMI medium containing 10% FCS added. The plates were incubated overnight at 37 °C as above. Finally, 0.5 mg/mL of 3-(4,5-dimethythiazol-2-yl)-2,5-diphenyl tetrazolium bromide (MTT) was added to each well and the plates incubated for a further 4 h. The medium was removed, and the insoluble formazan dissolved in 150 µL of DMSO. Absorbance was measured at 540 nm using a Thermo Multiskan EX (Thermofisher, UK)and Ascent Software (v2.6). Total binding was determined based on controls lacking any compounds (100% binding) in fibronectin-coated wells and uncoated wells blocked with BSA (0% binding) and corrected for background (no cells, fibronectin-coated).
As an initial test of anti-β3 activity, the ability of compounds to inhibit the adhesion of melanoma cells expressing high levels of αvβ3 and low levels of other RGD-binding integrins such as αvβ5 and α5β1 to immobilised fibronectin was evaluated.
Cells were seeded onto precoated plates in the presence or absence of putative antagonists and the number of adherent cells quantified colorimetrically.

The next data set has as its target T2, αIIbβ3 (Homo sapiens, UniProt P05106+P08514).
T2 construct: purchased Sigma
The experiment in a line: αIIbβ3/fibrinogen purified protein binding ELISA. The conditions noted are these: for IC50: read-out: IC50 (αIIbβ3/Fg). Here is the method: ELISA assays were performed as previously described with minor modifications. Briefly, serial dilutions of compounds were prepared in dimethyl sulfoxide (DMSO). C8 Maxi Immuno modules (Fisher Scientific) were incubated overnight at 4 °C with 0.5 μg/well of fibrinogen (Sigma) in sterile phosphate buffered saline (PBS, 0.2 g/L KCl, 8.0 g/L NaCl, 0.2 KH2PO4, 1.15 g/L Na2HPO4, pH 7.4). All subsequent wash steps were performed using 25 mM Tris, pH 7.6, 150 mM NaCl, 1 mM MnCl2, 1 mg/mL BSA, and binding/inhibition was carried out in 25 mM Tris, pH 7.6, 150 mM NaCl, 1 mM MnCl2, 1 mM MgCl2, 1 mM CaCl2, 1 mg/mL BSA.
Wells were washed and blocked with a blocking solution (PBS, 0.1% Tween 20, 3% BSA) for 1 h at 37 °C. Compounds were added to the wells at indicated concentrations (final 0.5% DMSO) in the presence of 0.5 µg/well αIIbβ3 (Sigma) and incubated at room temp for 1 h. After 3 washes, primary anti-αIIb (1:200 dilution, Santa Cruz Biotech, Heidelberg, Germany) and antigoat–HRP (1:500 dilution, Dako, Agilent, Santa Clara, CA, USA) were added at room temp for 1 h. The wells were washed and incubated with 0.1 mg/mL tetra-methylbenzidine (Sigma) for 25 min and the reaction was stopped with 1N H2SO4 (100 μL/well). The absorbance was measured at 450 nm using a Multiscan Spectrum reader (Thermo Scientific, Thermofisher, UK) and SkanIT RE (v2.4.4.5) software. Results were plotted as percent binding vs. log concentration and IC50 values determined.

Another data set relates to M14. Briefly: Cytotoxicity by MTT assay, 96 h, M14. Format: cell-based, human. The conditions noted are these: MTT, 96 hours. Here is the method: (§1) Before use in cell-based assays of integrin function, the effect of compounds on cell proliferation was tested using the MTT assay to avoid adhesion results being confounded by cell death (Supplementary Table S1). The effect of compounds on cell adhesion was then initially tested at a single, nontoxic concentration to identify active antagonists for further characterisation; those displaying a promising activity in the adhesion assay were tested at a wider range of concentrations to determine the IC50 (Table 2). […] Nevertheless, it is a cost-effective initial screening method. page 4: Table S1. Cytotoxicity of compounds on the cell lines used in the functional assays (measured by MTT assay). Cells (2000 cells/well for Sk-Mel-2; 1 x 10^4 cells/mL for M14) were incubated for 96 hours at 37 ° C in a total volume of 200 μL/well (180 μL medium + 20 μ L test compound solution). After 96 hours, the medium was replaced by fresh medium containing 0.5 mg/ml (end conc.) MTT per well, incubated for 4 h then the plate processed and read as described in the main text. […] ICT9053 41 naphthyridine 1 NHSO2Mes H Ester 52.6 ± 0.6 72.7 ± 9.8 ICT9065 42 naphthyridine 1 H H Ester >100 - ICT9079 43 naphthyridine 0 NHSO2Mes H Ester ~100 - ICT9061 44 naphthyridineT 1 NHSO2Mes H Ester 46.8 ± 10.7 - […] Ester 65.4 ± 11.1 >100 […] Ester 9.6 ± 5.7 >100 […] Ester >100 - […] Ester 54.6 ± 11.0 - […] Ester >5 3.3 ± 0.8 […] ICT9028 51 pyrimidine 2 NHSO2Ph H Acid >100 - ICT9031 52 pyrimidineT 1 NHSO2Mes H Acid >100 - ICT9090 53 pyrimidineT 2 NHSO2Mes H Acid >50 - ICT9029 54 pyrimidineT 2 NHSO2Ph H Acid >100 - ICT9063 55 naphthyridine 1 NHSO2Mes H Acid 61.7 ± 2.8 - […] Acid 45.5 ± 7.9 >100 […] 42.5 ± 1.8 >50 RGDS >50 - T trans configuration of cyclobutane sidechains.
(In general: Tetrazolium assays rely on reduction of a dye to a coloured formazan, in cell work by metabolically active cells.)

A further data set concerns Sk-Mel-2. Briefly: in vitro. It is filed as cell-based, human. The method, then:
as §1

The test system of the next data set is M14 cells. Briefly: cells. It is filed as cell-based, human. As to conditions: M14 scratch wound, 24 h, mean ± SD; read-out: Migration IC50. Here is the method: M14 cells (4 × 10^5/mL in RPMI 1640 medium) were seeded in six-well plates and incubated at 37 °C in a 5% CO2 humidified atmosphere for 48 h. The resulting confluent monolayer was scratched with a sterile P200 pipette tip to create a gap (approximately 2 cm in length and 650 μm in width) in the centre of the well. The medium was removed, and the cells washed with Hank’s balanced salt solution (HBSS) (1 mL) and replaced with a medium containing the test antagonist. After 24 h, the cells were washed twice with HBSS and fixed with ice-pre-cooled methanol for thirty minutes at −20 °C. Following hydration with two washes in PBS, the monolayers were counterstained with Harris’s haematoxylin solution for two minutes, then washed in tap water for one minute and left to dry at room temperature. The plates were observed using an inverted microscope, and digital images captured.
The anti-αvβ3 activity of selected compounds was confirmed in a wound-healing assay (Figure 3). A number of cell lines were initially investigated for their suitability in this assay. The Sk-Mel-2 cell line which adhered well to fibronectin in the adhesion assay migrated very slowly; therefore, M14 melanoma cells which combined high levels of αvβ3 with rapid migration and low levels of proliferation over the assay period (Supplementary Figure S4) were selected.

For a further data set, the system named is platelet aggregation. The experiment in a line: ADP-induced platelet aggregation in hirudin-treated whole blood (ex vivo). As to conditions: for % Inhibition (Platelet Aggregation) @ 100 μM: ADP 6.4 μM. Format: cell-based, human. The method, then: 2.7. Platelet Aggregation Assay
Platelet aggregation was measured in hirudin-anticoagulated whole blood from a healthy donor with ADP as agonist (end concentration 6.4 μM) using a Multiplate® impedance aggregometer (Dynabyte Informationssysteme GmbH, Munich, Germany). At 37 °C, cells were charged with 300 μL of saline, 300 μL of blood, 1 μL of compound (0.1% DMSO) and incubated for 3 min. The agonist was added and the increase in electrical impedance measured from 2 electrode pairs/cell for 6 min, transformed into arbitrary units (AU), and the area under the curve was calculated.

T2 sequence (P08514 32-887 limits assumed): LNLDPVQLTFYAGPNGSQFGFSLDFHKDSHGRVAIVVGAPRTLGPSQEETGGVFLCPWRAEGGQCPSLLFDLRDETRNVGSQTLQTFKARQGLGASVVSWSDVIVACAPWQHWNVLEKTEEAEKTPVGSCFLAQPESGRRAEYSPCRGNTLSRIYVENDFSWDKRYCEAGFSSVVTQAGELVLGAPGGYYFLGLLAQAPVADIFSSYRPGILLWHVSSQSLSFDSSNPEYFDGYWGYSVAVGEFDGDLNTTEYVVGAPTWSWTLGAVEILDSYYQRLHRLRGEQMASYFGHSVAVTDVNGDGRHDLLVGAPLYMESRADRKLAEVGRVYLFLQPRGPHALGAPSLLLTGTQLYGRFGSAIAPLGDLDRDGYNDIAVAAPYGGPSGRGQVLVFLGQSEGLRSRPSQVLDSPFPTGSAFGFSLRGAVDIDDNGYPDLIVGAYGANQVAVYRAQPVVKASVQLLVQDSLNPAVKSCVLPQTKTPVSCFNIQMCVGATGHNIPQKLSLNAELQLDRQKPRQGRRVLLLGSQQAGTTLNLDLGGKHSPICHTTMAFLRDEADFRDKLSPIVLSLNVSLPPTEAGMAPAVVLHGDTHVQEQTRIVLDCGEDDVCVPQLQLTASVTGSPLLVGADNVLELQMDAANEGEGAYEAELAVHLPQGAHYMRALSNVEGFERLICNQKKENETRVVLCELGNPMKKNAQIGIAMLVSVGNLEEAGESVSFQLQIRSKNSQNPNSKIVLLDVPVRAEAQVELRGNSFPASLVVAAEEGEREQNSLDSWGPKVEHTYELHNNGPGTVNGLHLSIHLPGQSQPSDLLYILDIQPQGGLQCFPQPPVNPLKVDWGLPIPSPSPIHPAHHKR
T2 sequence (P08514 891-1039 partner limits assumed): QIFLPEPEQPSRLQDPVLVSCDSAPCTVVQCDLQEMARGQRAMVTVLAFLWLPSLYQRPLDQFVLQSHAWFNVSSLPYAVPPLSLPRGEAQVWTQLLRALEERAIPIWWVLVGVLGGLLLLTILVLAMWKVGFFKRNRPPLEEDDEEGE
T2 sequence (P05106 27-788): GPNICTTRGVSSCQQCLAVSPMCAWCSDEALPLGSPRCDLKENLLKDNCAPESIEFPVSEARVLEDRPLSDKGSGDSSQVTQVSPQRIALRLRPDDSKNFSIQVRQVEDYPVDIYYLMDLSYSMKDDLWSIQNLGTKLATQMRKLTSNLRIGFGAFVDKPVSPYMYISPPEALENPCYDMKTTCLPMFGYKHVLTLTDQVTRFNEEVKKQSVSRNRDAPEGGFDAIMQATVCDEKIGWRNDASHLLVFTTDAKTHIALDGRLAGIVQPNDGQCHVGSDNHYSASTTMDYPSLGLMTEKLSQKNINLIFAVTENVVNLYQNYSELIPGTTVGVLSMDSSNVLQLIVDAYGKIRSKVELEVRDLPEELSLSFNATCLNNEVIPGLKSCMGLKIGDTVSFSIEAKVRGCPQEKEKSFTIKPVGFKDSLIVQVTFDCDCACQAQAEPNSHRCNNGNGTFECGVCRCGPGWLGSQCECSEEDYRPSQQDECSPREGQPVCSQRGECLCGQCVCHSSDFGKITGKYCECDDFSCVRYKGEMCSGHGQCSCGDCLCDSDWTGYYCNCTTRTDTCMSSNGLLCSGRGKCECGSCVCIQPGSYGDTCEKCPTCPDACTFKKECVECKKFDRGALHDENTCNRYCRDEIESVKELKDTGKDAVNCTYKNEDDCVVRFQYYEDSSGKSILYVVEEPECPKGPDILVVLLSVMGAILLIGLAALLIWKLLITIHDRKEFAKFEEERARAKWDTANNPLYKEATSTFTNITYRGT
T1 sequence (P06756 31-889 limits assumed): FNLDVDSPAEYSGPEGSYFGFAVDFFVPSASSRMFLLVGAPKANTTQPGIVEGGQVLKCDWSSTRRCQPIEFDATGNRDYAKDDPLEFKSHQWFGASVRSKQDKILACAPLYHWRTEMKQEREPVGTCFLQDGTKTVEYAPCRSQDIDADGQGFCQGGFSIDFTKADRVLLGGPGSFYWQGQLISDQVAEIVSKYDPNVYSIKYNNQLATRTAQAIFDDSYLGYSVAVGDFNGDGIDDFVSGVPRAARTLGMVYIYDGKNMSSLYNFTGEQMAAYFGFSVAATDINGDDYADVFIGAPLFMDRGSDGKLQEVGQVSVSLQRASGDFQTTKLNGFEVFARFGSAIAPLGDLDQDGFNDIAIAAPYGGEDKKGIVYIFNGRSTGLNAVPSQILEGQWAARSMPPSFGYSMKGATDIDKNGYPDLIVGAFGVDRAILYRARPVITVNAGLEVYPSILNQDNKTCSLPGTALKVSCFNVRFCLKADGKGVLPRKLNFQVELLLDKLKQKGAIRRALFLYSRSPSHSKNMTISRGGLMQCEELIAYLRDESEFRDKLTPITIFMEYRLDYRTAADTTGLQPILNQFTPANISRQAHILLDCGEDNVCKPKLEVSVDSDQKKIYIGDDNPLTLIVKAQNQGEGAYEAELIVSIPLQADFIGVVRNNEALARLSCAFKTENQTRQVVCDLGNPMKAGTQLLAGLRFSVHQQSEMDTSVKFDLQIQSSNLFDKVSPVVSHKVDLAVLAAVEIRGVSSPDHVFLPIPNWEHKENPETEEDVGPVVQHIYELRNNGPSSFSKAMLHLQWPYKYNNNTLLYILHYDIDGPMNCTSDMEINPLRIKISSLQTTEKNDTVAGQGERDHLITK
T1 sequence (P06756 891-1048 partner limits assumed): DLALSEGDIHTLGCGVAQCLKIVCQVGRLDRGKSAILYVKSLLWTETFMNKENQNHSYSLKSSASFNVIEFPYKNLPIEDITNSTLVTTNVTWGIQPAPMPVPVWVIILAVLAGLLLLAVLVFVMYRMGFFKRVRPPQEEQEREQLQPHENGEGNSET
T1 sequence (P05106 27-788): as the sequence (P05106 27-788) above

Regarding `COC(=O)[C@H](CNC(=O)[C@H]1C[C@H](CCc2ccc3cccnc3n2)C1)NS(=O)(=O)c1c(C)cc(C)cc1C` [ICT9053 41, (S)-methyl 3-((1r,3r)-3-(2-(1,8-naphthyridin-2-yl)ethyl)cyclobutanecarboxamido)-2-(2,4,6-trimethylphenylsulfonamido)propanoate], the “Adhesion % Inhibition @ 5 μM” value on αvβ3 stood at 27.5 ± 32.9%. Besides, the IC50 at αvβ3 is more than 5 µM; on αIIbβ3 (mean ± SD) it was more than 100 µM; in the data set on M14, 72.7 ± 9.8 µM; with Sk-Mel-2, 52.6 ± 0.6 µM; in the data set on M14 cells, more than 10 µM. Also, the “% Inhibition (αIIbβ3/Fg) @ 50 μM” value at αIIbβ3 (mean ± SD) was 29.4 ± 17.6%.

For the compound `Cc1cc(C)c(S(=O)(=O)N[C@@H](CNC(=O)C2CC(CCNc3ncccn3)C2)C(=O)O)c(C)c1` (stereo partly drawn) [ICT9031 52, (S)-3-((1r,3s)-3-(2-(pyrimidin-2-ylamino)ethyl)cyclobutanecarboxamido)-2-(2,4,6-trimethylphenylsulfonamido)propanoic acid], on αvβ3, the “Adhesion % Inhibition @ 50 μM” value is reported as 11.1 ± 2.4% and the IC50 was more than 50 µM. Besides, at αIIbβ3 (mean ± SD), the “% Inhibition (αIIbβ3/Fg) @ 50 μM” value came out at 96.2 ± 6.3% and the IC50 was 1.7 ± 2.4 µM. Further, the “% Inhibition (Platelet Aggregation) @ 100 μM” value with platelet aggregation is listed as 11.1%. Also, the IC50 in the data set with Sk-Mel-2 was more than 100 µM.

In the case of `Cl.Cl.Cl.N=C(N)c1ccc(N2CCN(C3CCN(CC(=O)O)CC3)CC2)cc1` [GR144053, reference compound], the IC50 on αIIbβ3 (positive control) came to 0.0237 ± 0.0031 µM; in the data set with platelet aggregation (ADP-induced), 0.24 µM. Further, the “% Inhibition (Platelet Aggregation) @ 100 μM” value with platelet aggregation is 100%.

As to `COC(=O)[C@H](CNC(=O)[C@H]1C[C@H](CCCNc2ncccn2)C1)NS(=O)(=O)c1c(C)cc(C)cc1C` [ICT9020 24], at αvβ3, the “Adhesion % Inhibition @ 5 μM” value was found to be 19.1 ± 14.2%. For the same compound, the IC50 is 36 ± 18.6 µM with M14, 57.8 ± 1.9 µM in the data set on Sk-Mel-2 and more than 10 µM in the data set on M14 cells.

With `COC(=O)[C@H](CNC(=O)[C@H]1C[C@H](CCCCNc2ncccn2)C1)NS(=O)(=O)c1c(C)cc(C)cc1C` [ICT9018 26, (S)-methyl 3-((1r,3r)-3-(4-(pyrimidin-2-ylamino)butyl)cyclobutanecarboxamido)-2-(2,4,6-trimethylphenylsulfonamido)propanoate], the “Adhesion % Inhibition @ 5 μM” value on αvβ3 worked out at 20.9 ± 27.5%. The IC50 with M14 was more than 100 µM; with Sk-Mel-2 it was 72 ± 6.5 µM; in the data set with M14 cells, more than 10 µM.

Regarding `COC(=O)[C@H](CNC(=O)C1CC(CCNc2ncccn2)C1)NS(=O)(=O)c1c(C)cc(C)cc1C` (stereo partly drawn) [ICT9019 21, (S)-Methyl 3-((1s,3r)-3-(2-(pyrimidin-2-ylamino)ethyl)cyclobutanecarboxamido)-2-(2,4,6-trimethylphenylsulfonamido)propanoate], the “Adhesion % Inhibition @ 5 μM” value on αvβ3 is given as 35.2 ± 19.1%. Further, on αvβ3, the “Adhesion % Inhibition @ 50 μM” value was 48.3 ± 4.1%. Moreover, the IC50 on αvβ3 was 50 ± 5 µM; in the data set with M14, more than 100 µM; in the data set with Sk-Mel-2, 53.8 ± 3.2 µM; with M14 cells it was 9.5 ± 0.9 µM. For the same compound, the “% Inhibition (αIIbβ3/Fg) @ 50 μM” value on αIIbβ3 (mean ± SD) was 15.6 ± 14.5%.

`COC(=O)[C@H](CNC(=O)C1CC(CCc2ccc3c(n2)NCCC3)C1)NS(=O)(=O)c1ccccc1` (stereo partly drawn) [ICT9057 45, (S)-methyl 2-(phenylsulfonamido)-3-((1r,3r)-3-(2-(5,6,7,8-tetrahydro-1,8-naphthyridin-2-yl)ethyl)cyclobutanecarboxamido)propanoate]: on αvβ3, the “Adhesion % Inhibition @ 5 μM” value is listed as 59.5 ± 24.0%. Further, the IC50 with M14 is more than 100 µM; with Sk-Mel-2 it was 65.4 ± 11.1 µM; in the data set with M14 cells it was 1 ± 0.09 µM.

On to `COC(=O)[C@H](CNC(=O)[C@H]1C[C@@H](CCc2ccc3c(n2)NCCC3)C1)NS(=O)(=O)c1c(C)cc(C)cc1C` [ICT9062 49, (S)-methyl 3-((1s,3s)-3-(2-(5,6,7,8-tetrahydro-1,8-naphthyridin-2-yl)ethyl)cyclobutanecarboxamido)-2-(2,4,6-trimethylphenylsulfonamido)propanoate], for which, on αvβ3, the “Adhesion % Inhibition @ 5 μM” value stood at 72.3 ± 9.4%. The IC50 with M14 was 3.3 ± 0.8 µM; in the data set on Sk-Mel-2, more than 5 µM; in the data set with M14 cells, 0.15 ± 0.03 µM.

As to `COC(=O)[C@H](CNC(=O)C1CC(CCCNc2ncccn2)C1)NS(=O)(=O)c1ccccc1` (stereo partly drawn) [ICT9023 23, (S)-methyl 2-(phenylsulfonamido)-3-((1r,3r)-3-(3-(pyrimidin-2-ylamino)propyl)cyclobutanecarboxamido)propanoate], the “Adhesion % Inhibition @ 50 μM” value on αvβ3 came out at 7.4 ± 15.1%. Moreover, the “% Inhibition (αIIbβ3/Fg) @ 50 μM” value at αIIbβ3 (mean ± SD) came out at 10.9 ± 15.4%. The same compound registered an IC50 in the data set on Sk-Mel-2 of more than 100 µM.
